Data reported in patent US4444775A, “Substituted imidazo[1,5-A]pyridines” (Ciba-Geigy Corporation, priority 1982, dated 1984).

Columns and labels:
[1] = system: arachidonic acid induced pulmonary obstruction; test: protection against sudden death due to arachidonic acid induced pulmonary obstruction; format: in vivo; settings: mice, orally, 100 mg/kg
[2] = system: plasma thromboxane B2 and 6-keto-PGF1α; test: reduction of plasma levels of thromboxane in vivo after arachidonic acid challenge; settings: guinea pig
Protocol: The reduction of plasma levels of thromboxane is determined in vivo on administration of the test compound to guinea pigs in the following manner:
Guinea pigs are dosed with vehicle or test drug and injected intraperitoneally with arachidonic acid (40 mg/kg) 2 hours later. Blood is collected for analysis 1 hour after the arachidonic acid challenge. A single aliquot of each plasma sample is assayed for thromboxane B2 and another aliquot for 6-keto-PGF1 α, the stable metabolites of thromboxane A2 and prostacyclin (PGI2) respectively.

[3] = molecular target: T1, thromboxane synthetase from lysed human platelets (Homo sapiens, UniProt P24557); test: in vitro inhibition of the thromboxane synthetase enzyme (TxB2/PGF2α+β ratio from 14C-arachidonic acid); format: biochemical; settings: human platelet microsomal enzyme, 30 minutes incubation
T1 construct: crude microsomal preparation of thromboxane synthetase from lysed human platelets; from tissue; host or cells: human platelets, lysed; crude microsomal preparation
T1 sequence (P24557 1-533): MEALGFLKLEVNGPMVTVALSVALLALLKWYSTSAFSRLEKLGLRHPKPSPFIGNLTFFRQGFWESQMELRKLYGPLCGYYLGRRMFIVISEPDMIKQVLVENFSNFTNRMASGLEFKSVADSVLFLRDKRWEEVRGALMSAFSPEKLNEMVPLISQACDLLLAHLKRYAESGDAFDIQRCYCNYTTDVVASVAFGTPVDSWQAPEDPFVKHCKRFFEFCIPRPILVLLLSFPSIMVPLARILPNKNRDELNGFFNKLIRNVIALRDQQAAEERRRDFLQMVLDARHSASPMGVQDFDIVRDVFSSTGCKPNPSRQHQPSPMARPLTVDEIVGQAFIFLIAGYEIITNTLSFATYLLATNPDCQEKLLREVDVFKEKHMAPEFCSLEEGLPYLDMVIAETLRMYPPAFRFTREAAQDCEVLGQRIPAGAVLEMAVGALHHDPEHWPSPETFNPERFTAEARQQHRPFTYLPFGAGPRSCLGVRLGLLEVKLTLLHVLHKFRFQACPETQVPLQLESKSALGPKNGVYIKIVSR
Protocol: Res. Comm. 74, 1432 (1977); the testing procedure is as follows:
The test compound (dissolved in buffer, or if necessary, in a small amount of ethanol) is added to the incubation medium. […] The radioactive products and excess substrate are extracted into ethyl acetate; the extract is evaporated to dryness; the residue is dissolved in acetone, spotted on thin-layer plates and chromatographed in the solvent system toluene: acetone: glacial acetic acid (100 volumes: 100 volumes: 3 volumes).

[4] = molecular target: T2, prostaglandin cyclooxygenase (sheep seminal vesicle microsomes) (Ovis aries, UniProt P05979); test: in-vitro effect on prostaglandin cyclooxygenase (conversion of 14C-arachidonic acid to PGE2); format: biochemical; settings: read-out: IC50 for inhibition of cyclooxygenase
T2 construct: Lyophilized sheep seminal vesicle microsomes are utilized as the prostaglandin-synthesizing enzyme preparation; from tissue; host or cells: sheep seminal vesicle microsomes, lyophilized
T2 sequence (P05979 25-600): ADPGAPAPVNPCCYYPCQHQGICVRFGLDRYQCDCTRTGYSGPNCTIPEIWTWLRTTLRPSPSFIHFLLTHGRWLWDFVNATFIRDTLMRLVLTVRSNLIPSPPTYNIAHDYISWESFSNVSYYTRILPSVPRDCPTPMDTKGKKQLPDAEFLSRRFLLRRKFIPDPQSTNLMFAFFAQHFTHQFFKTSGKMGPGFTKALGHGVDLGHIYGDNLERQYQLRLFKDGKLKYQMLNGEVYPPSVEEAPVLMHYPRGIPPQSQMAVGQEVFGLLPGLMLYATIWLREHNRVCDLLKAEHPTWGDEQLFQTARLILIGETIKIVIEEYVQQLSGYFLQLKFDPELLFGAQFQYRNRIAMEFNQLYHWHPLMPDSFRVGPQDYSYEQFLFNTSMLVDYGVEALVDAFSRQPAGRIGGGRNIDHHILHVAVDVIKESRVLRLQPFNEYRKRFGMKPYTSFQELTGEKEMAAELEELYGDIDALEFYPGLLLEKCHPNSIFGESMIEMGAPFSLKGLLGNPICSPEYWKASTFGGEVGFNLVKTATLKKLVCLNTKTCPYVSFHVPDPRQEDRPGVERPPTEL
Protocol: The in-vitro effect on prostaglandin cyclooxygenase is measured by a modification of the method of Takeguchi et al described in Biochemistry 10, 2372 (1971); the testing procedure is as follows: Lyophilized sheep seminal vesicle microsomes are utilized as the prostaglandin-synthesizing enzyme preparation. The conversion of ^14 C-arachidonic acid to PGE2 is measured. Test compounds (dissolved in buffer, or if necessary, in small amount of ethanol) are added to the incubation mixture. The prostaglandins are extracted and separated by thin-layer chromatography; the plates are scanned, the radioactive zones corresponding to PGE2 are transferred to liquid scintillation vials and counted for radioactivity. IC50 values for inhibition are determined graphically as the concentration of test compound causing a 50% reduction in the amount of PGE2 synthesized.

[5] = molecular target: T3, prostacyclin (PGI2) synthetase (microsomal fraction of bovine aorta) (Bos taurus, UniProt Q29626); test: in-vitro effect on prostacyclin (PGI2) synthetase (6-keto-PGF1α/PGE2 ratio); format: biochemical; settings: read-out: IC50 for inhibition of prostacyclin synthetase
T3 construct: crude PGI2 synthetase in the form of a microsomal fraction of bovine aorta; from tissue; host or cells: bovine aorta, microsomal fraction
T3 sequence (Q29626 1-500): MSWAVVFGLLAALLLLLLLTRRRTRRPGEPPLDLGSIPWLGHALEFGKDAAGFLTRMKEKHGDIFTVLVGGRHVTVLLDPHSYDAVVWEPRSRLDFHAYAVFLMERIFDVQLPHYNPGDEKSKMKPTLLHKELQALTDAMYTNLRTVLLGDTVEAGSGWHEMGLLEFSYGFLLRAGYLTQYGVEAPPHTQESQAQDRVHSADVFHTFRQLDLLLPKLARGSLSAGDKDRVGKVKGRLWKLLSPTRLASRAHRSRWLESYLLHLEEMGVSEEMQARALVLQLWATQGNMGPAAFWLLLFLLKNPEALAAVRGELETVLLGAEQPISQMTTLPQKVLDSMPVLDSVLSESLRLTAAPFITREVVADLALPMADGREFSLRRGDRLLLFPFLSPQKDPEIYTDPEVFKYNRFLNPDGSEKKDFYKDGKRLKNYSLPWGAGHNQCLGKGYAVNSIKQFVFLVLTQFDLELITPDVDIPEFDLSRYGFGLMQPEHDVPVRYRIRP
Protocol: The in-vitro effect on prostacyclin (PGI2) synthetase is measured analogous to the method of Sun et al., Prostaglandins 14, 1055 (1977);
The testing procedure is as follows:
^14 C-Arachidonic acid is incubated with an enzyme mixture consisting of solubilized and partially purified prostaglandin cyclo-oxygenase from sheep seminal vesicles and crude PGI2 synthetase in the form of a microsomal fraction of bovine aorta.
Test compound (dissolved in buffer, or if necessary, in a small amount of ethanol) is placed in the incubation medium. The reaction mixture is incubated in 100 mM Tris HCl (pH 7.5) for 30 minutes at 37° C., acidified to pH 3 and extracted into ethyl acetate. The extract is evaporated to dryness; the residue is dissolved in acetone, spotted on thin-layer plates and chromatographed in a solvent system described by Sun et al. The radioactive zones are located with a scanner; those corresponding to 6-keto-PGF1 α (a stable end product of prostacyclin biotrasformation) and PGE2 are transferred to liquid scintillation vials and counted. The ratio of counts for 6-keto-PGF1 α/PGE2 is calculated for each concentration of test compound used. IC50 values for inhibition are determined graphically as the concentration of test compound at which the ratio of 6-keto-PGF1 α/PGE2 is reduced to 50% of the control value.

[6] = system: bleeding time; test: prolongation of bleeding time in the rat; format: in vivo; settings: rats, dose of about 1 mg/kg i.p. or lower
Excerpt: For example, in thromboembolism, specific inhibition of the enzyme thromboxane synthetase reduces arachidonic acid induced platelet aggregation involved in clot formation. Experimentally, prolongation of bleeding time in the rat is indicative of a beneficial antithrombotic effect.

For `O=C(O)CCCCCc1cccc2cncn12` [Example 2, 5-(5-carboxypentyl)-imidazo[1,5-a]pyridine], the “protection against sudden death” value [1] was “protects against sudden death”, the “decrease with respect to prostacyclin (plasma 6-keto-PGF1α)” value ([2]; oral dose 0.25 mg/kg or higher doses) was “no significant decrease” and the “reduction of plasma levels of thromboxane B2” value ([2]; oral dose as low as 0.25 mg/kg) was “over 50%”. For the same molecule, the IC50 [3] was ~0.003 µM, the IC50 [4] was > 100 µM and the IC50 [5] was > 100 µM. The bleeding time [6] was “prolongs bleeding time”.
